# Source: publication PMC3898116, “FGT-1 is the major glucose transporter in C. elegans and is central to aging pathways” (Biochemical Journal, 2013)
# Target: T1, hGLUT1 (Homo sapiens, UniProt P11166)
# T1 construct: gene SLC2A1; untagged, expressed in Xenopus laevis oocytes from cRNA
# T1 sequence (P11166 1-492): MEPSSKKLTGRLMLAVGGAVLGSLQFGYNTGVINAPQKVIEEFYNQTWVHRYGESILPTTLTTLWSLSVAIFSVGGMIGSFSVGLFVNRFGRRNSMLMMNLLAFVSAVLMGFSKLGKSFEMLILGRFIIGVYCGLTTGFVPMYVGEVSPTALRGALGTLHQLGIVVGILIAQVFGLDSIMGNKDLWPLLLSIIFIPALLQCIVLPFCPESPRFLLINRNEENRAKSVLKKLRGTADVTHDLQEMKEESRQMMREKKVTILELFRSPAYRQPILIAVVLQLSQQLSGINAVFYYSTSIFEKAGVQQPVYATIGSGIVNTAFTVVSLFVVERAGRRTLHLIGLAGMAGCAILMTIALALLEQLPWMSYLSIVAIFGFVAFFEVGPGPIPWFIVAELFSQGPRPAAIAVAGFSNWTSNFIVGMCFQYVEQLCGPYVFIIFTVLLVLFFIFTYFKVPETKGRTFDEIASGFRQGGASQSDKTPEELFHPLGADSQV
# Test: […]glucose uptake in Xenopus oocytes
# Type: cell-based
# Details: incomplete ND96 buffer, 60 min uptake; labelled compound
smiles,measurement,value
OC[C@H]1OC(O)[C@H](O)[C@@H](O)[C@@H]1O (stereo partly drawn) [D-glucose],[14C]glucose uptake in Xenopus oocytes,These proteins transport glucose at levels that are comparable with GLUT1 expressed in the same system
